{"source": "patent US20020132225A1", "about": "“Compositions and methods for prolonging survival of chilled platelets” (priority 2000, published 2002)", "key": {"stimulated THP-1 cells": {"test_system": "stimulated THP-1 cells", "assay": "In vitro phagocytic assay: phagocytosis of chilled platelets by THP-1 cells (FACS)", "type": "cell-based, human", "conditions": "for inhibition of phagocytosis of platelets by phagocytic cells: up to 200 mM", "excerpt": "As a first step toward evaluation of this strategy, we have developed an in vitro phagocytic assay to study the interaction between chilled platelets and mononuclear phagocytes. […] These measurements can be made with a fluorescence-activated cell sorter (FACS). […] None of these sugars had any effect on platelet aggregation induced by thrombin or by ristocetin. The latter result is particularly important, because it reflects platelet hemostatic function mediated by GPIb interaction with von Willebrand factor.\nIn these experiments (FIG. 11, 12, and 13) platelets were loaded with fluorescent dye CM-Orange, then incubated for 1 h at 22° C. (control), 4° C. (chilled) or exposed to UV (UV). Phagocytosis was quantified by measuring the incorporation of CM-orange-fluorescence (CM-Orange labeled platelets) into monocyte-sized cells. Bound versus ingested platelets were separated by labeling the cells after the phagocytic period with FITC-labeled anti-integrin-β3 (CD 61) antibodies, e.g., bound platelets will be FITC positive, ingested platelets will be negative. The uptake of control versus chilled platelets was compared. Chilled platelets are phagocytized because they fail to label with FITC-conjugated anti-β3 antibodies (CM-Orange positive), whereas control platelets are poorly ingested although some platelets are bound to the monocyte surface. From this experiment, the ratio of 22° C. to 4° C. ingested platelets (CM-Orange positive) can be calculated. […] These findings indicate that the cold platelet clearance differs from UV-induced clearance."}, "OG-permeant platelets": {"test_system": "OG-permeant platelets", "assay": "Actin filament barbed end exposure in chilled OG-permeabilized platelets", "type": "cell-based, human", "conditions": "OG-permeant platelets cooled", "protocol": "We studied the biochemical and structural basis for the cold-induced shape transformation in human platelets and found it to require net actin assembly. To understand the signals involved in this process, we applied a permeabilization scheme to the cooling process that we have used to dissect PAR-1 mediated actin assembly. In this approach, platelets are first permeabilized with 0.25% octylglucoside (OG), then chilled to 4° C. for 5 min and rewarmed to 37° C. Resting platelets remained discoid at 37° C. after permeabilization with OG but changed shape when chilled. Chilled OG-permeant platelets have blebs on their surfaces and elaborate filopodial processes. […] Rewarming is required to assay filament end numbers, because we discovered that OG-treated platelets reseal in the cold, but become permeable again when rewarmed. We assayed the number of actin filament barbed ends biochemically by monitoring the acceleration of pyrene-actin polymerization rates fluorometrically in the presence and absence of CB (Hartwig, J. et al., Cell 82:643-653)."}}, "data": [{"compound": "O=C[C@H](O)[C@@H](O)[C@H](O)[C@H](O)CO", "note": "[D-glucose]", "values": [{"measurement": "inhibition of phagocytosis of platelets by phagocytic cells", "setting": "stimulated THP-1 cells", "value": "not"}]}, {"compound": "Nc1nc2c(ncn2[C@@H]2O[C@H](COP(=O)(O)OP(=O)(O)OP(O)(O)=S)[C@@H](O)[C@H]2O)c(=O)[nH]1", "note": "[GTPγS]", "values": [{"measurement": "effect on barbed ends exposed upon cooling", "setting": "OG-permeant platelets", "value": "no effect"}]}, {"compound": "O=C[C@H](O)[C@@H](O)[C@@H](O)[C@H](O)CO", "note": "[D-galactose]", "values": [{"measurement": "inhibition of phagocytosis of platelets by phagocytic cells", "setting": "stimulated THP-1 cells", "value": "not"}]}, {"compound": "CC(=O)N[C@H]1C(O)O[C@H](CO)[C@@H](O)[C@@H]1O", "note": "(stereo partly drawn) [N-acetyl-D-glucosamine]", "values": [{"measurement": "inhibition of phagocytosis of platelets by phagocytic cells", "setting": "stimulated THP-1 cells", "value": "not"}]}, {"compound": "Nc1nc2c(ncn2[C@@H]2O[C@H](COP(=O)(O)OP(O)(O)=S)[C@@H](O)[C@H]2O)c(=O)[nH]1", "note": "[GDPβS]", "values": [{"measurement": "effect on barbed ends exposed upon cooling", "setting": "OG-permeant platelets", "value": "no effect"}]}, {"compound": "N17cdc42: negative dominant form of cdc42 GTPase", "values": [{"measurement": "effect on barbed ends exposed upon cooling", "setting": "OG-permeant platelets", "value": "failed to inhibit"}]}, {"compound": "COC1OC(CO)C(O)C(O)C1O", "note": "[α-methyl-D-glycoside]", "values": [{"measurement": "inhibition of CM-Orange pellet phagocytosis by stimulated THP-1 cells", "setting": "stimulated THP-1 cells; FIG. 11-13", "value": "concentration dependent inhibition"}]}]}
